pIC50: −log10 of the molar value.
tested on: A549; experiment: Antiproliferative activity against human A549 cells assessed as cell growth inhibition measured after 24 hrs by MTT assay; type: functional, cell-based; conditions: A549, 24 h

SMILES	pIC50
COc1cc(C2=NN(C(N)=O)C(c3cn(Cc4ccc(OCCN5CCCCC5)cc4)c4ccc(Br)cc34)C2)cc(OC)c1OC (stereo not given)	5.16
COc1ccc(C2=NN(C(N)=O)C(c3cn(Cc4ccc(OCCN5CCCCC5)cc4)c4ccc(Br)cc34)C2)cc1OC (stereo not given)	5.13
NC(=O)N1N=C(c2cccc(C(F)(F)F)c2)CC1c1cn(Cc2ccc(OCCN3CCCCC3)cc2)c2ccc(Br)cc12 (stereo not given)	5.27
COc1ccc(C2=NN(C(N)=O)C(c3cn(Cc4ccc(OCCN5CCCCC5)cc4)c4ccccc34)C2)cc1 (stereo not given)	4.90
NC(=O)N1N=C(c2ccc(F)cc2)CC1c1cn(Cc2ccc(OCCN3CCCCC3)cc2)c2ccccc12 (stereo not given)	5.13
COc1cc(C2=NN(C(N)=O)C(c3cn(Cc4ccc(OCCN5CCCCC5)cc4)c4ccccc34)C2)cc(OC)c1OC (stereo not given)	4.93
NC(=O)N1N=C(c2ccc(F)cc2)CC1c1cn(Cc2ccc(OCCN3CCCCC3)cc2)c2ccc(Br)cc12 (stereo not given)	5.17
COc1ccc2c(c1)c(C1CC(c3cc(OC)c(OC)c(OC)c3)=NN1C(N)=O)cn2Cc1ccc(OCCN2CCCCC2)cc1 (stereo not given)	4.91
COc1ccc(C2=NN(C(N)=O)C(c3cn(Cc4ccc(OCCN5CCCCC5)cc4)c4ccc(OC)cc34)C2)cc1 (stereo not given)	4.84
NC(=O)N1N=C(c2ccc(Br)cc2)CC1c1cn(Cc2ccc(OCCN3CCCCC3)cc2)c2ccc(Br)cc12 (stereo not given)	5.17
CCCCCCCOc1ccc(Cn2cc(C3CC(c4ccc(C(F)(F)F)cc4)=NN3C(N)=O)c3cc(Br)ccc32)cc1 (stereo not given)	< 4.30
NC(=O)N1N=C(c2cccc(Cl)c2)CC1c1cn(Cc2ccc(OCCN3CCCCC3)cc2)c2ccc(Br)cc12 (stereo not given)	5.23
NC(=O)N1N=C(c2ccc(C(F)(F)F)cc2)CC1c1cn(Cc2ccc(OCCC3CCNCC3)cc2)c2ccc(Br)cc12 (stereo not given)	5.34
CN(C)CCOc1ccc(Cn2cc(C3CC(c4ccc(C(F)(F)F)cc4)=NN3C(N)=O)c3cc(Br)ccc32)cc1 (stereo not given)	5.21
NC(=O)N1N=C(c2ccc(C(F)(F)F)cc2)C[C@@H]1c1cn(Cc2ccc(OCCN3CCCCCC3)cc2)c2ccc(Br)cc12	5.21
NC(=O)N1N=C(c2ccc(C(F)(F)F)cc2)CC1c1cn(Cc2ccc(OCCN3CCCCC3)cc2)c2ccccc12 (stereo not given)	5.25
COc1ccc2c(c1)c(C1CC(c3ccc(C(F)(F)F)cc3)=NN1C(N)=O)cn2Cc1ccc(OCCN2CCCCC2)cc1 (stereo not given)	5.21
NC(=O)N1N=C(c2ccc(C(F)(F)F)cc2)CC1c1cn(Cc2ccc(OCCN3CCOCC3)cc2)c2ccc(Br)cc12 (stereo not given)	5.03
COc1cccc(C2=NN(C(N)=O)C(c3cn(Cc4ccc(OCCN5CCCCC5)cc4)c4ccc(Br)cc34)C2)c1 (stereo not given)	5.21
NC(=O)N1N=C(c2ccc(C(F)(F)F)cc2)C[C@H]1c1cn(Cc2ccc(OCCN3CCCCCC3)cc2)c2ccc(Br)cc12	5.52
NC(=O)N1N=C(c2ccc(Cl)cc2)CC1c1cn(Cc2ccc(OCCN3CCCCC3)cc2)c2ccc(Br)cc12 (stereo not given)	5.27
COc1ccc(C2=NN(C(N)=O)C(c3cn(Cc4ccc(OCCN5CCCCC5)cc4)c4ccc(Br)cc34)C2)cc1 (stereo not given)	5.23
NC(=O)N1N=C(c2ccc(C(F)(F)F)cc2)CC1c1cn(Cc2ccc(OCCN3CCCCC3)cc2)c2ccc(Br)cc12 (stereo not given)	5.33
COc1ccccc1C1=NN(C(N)=O)C(c2cn(Cc3ccc(OCCN4CCCCC4)cc3)c3ccc(Br)cc23)C1 (stereo not given)	5.16
COc1ccc2c(c1)c(C1CC(c3ccc(F)cc3)=NN1C(N)=O)cn2Cc1ccc(OCCN2CCCCC2)cc1 (stereo not given)	5.02

target: T1, Interleukin-6 receptor subunit beta (Homo sapiens) (UniProt P40189); experiment: Binding affinity to immobilized GP130 (unknown origin) assessed as response unit at 20 uM by SPR analysis; conditions: not given
T1 sequence (whole entry): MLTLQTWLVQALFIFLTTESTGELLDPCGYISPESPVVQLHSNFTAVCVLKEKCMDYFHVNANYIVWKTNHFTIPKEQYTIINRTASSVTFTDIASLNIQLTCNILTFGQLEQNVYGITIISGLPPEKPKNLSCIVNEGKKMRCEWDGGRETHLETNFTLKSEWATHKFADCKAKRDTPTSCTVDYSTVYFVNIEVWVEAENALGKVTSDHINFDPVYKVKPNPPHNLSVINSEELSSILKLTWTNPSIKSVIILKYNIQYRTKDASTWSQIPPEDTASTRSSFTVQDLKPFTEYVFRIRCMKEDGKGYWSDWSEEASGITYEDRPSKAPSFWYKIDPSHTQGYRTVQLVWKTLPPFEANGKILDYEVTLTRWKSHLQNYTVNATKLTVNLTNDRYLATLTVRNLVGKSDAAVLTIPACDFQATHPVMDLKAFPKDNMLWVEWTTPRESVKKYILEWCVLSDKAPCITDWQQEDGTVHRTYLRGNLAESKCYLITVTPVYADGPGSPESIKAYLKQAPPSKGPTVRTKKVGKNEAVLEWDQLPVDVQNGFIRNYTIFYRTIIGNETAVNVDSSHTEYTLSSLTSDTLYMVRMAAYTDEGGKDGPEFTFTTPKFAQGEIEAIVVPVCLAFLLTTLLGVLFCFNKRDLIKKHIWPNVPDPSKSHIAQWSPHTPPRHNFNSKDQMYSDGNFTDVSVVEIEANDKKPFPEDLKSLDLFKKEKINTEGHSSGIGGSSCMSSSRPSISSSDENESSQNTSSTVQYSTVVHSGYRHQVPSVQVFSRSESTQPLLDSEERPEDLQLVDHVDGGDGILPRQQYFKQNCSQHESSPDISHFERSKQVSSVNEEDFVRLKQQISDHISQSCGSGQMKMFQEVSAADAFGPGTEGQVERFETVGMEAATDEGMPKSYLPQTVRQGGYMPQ

SMILES	Activity [RU]
COc1cc(C2=NN(C(N)=O)C(c3cn(Cc4ccc(OCCN5CCCCC5)cc4)c4ccc(Br)cc34)C2)cc(OC)c1OC (stereo not given)	32.7
COc1ccc(C2=NN(C(N)=O)C(c3cn(Cc4ccc(OCCN5CCCCC5)cc4)c4ccc(Br)cc34)C2)cc1OC (stereo not given)	30.1
NC(=O)N1N=C(c2cccc(C(F)(F)F)c2)CC1c1cn(Cc2ccc(OCCN3CCCCC3)cc2)c2ccc(Br)cc12 (stereo not given)	10.2
COc1ccc(C2=NN(C(N)=O)C(c3cn(Cc4ccc(OCCN5CCCCC5)cc4)c4ccccc34)C2)cc1 (stereo not given)	33.3
NC(=O)N1N=C(c2ccc(F)cc2)CC1c1cn(Cc2ccc(OCCN3CCCCC3)cc2)c2ccccc12 (stereo not given)	21
COc1cc(C2=NN(C(N)=O)C(c3cn(Cc4ccc(OCCN5CCCCC5)cc4)c4ccccc34)C2)cc(OC)c1OC (stereo not given)	21.7
NC(=O)N1N=C(c2ccc(F)cc2)CC1c1cn(Cc2ccc(OCCN3CCCCC3)cc2)c2ccc(Br)cc12 (stereo not given)	19.9
COc1ccc2c(c1)c(C1CC(c3cc(OC)c(OC)c(OC)c3)=NN1C(N)=O)cn2Cc1ccc(OCCN2CCCCC2)cc1 (stereo not given)	16.2
COc1ccc(C2=NN(C(N)=O)C(c3cn(Cc4ccc(OCCN5CCCCC5)cc4)c4ccc(OC)cc34)C2)cc1 (stereo not given)	28.8
NC(=O)N1N=C(c2ccc(Br)cc2)CC1c1cn(Cc2ccc(OCCN3CCCCC3)cc2)c2ccc(Br)cc12 (stereo not given)	47.3
CCCCCCCOc1ccc(Cn2cc(C3CC(c4ccc(C(F)(F)F)cc4)=NN3C(N)=O)c3cc(Br)ccc32)cc1 (stereo not given)	0.6
NC(=O)N1N=C(c2cccc(Cl)c2)CC1c1cn(Cc2ccc(OCCN3CCCCC3)cc2)c2ccc(Br)cc12 (stereo not given)	27.4
NC(=O)N1N=C(c2ccc(C(F)(F)F)cc2)CC1c1cn(Cc2ccc(OCCC3CCNCC3)cc2)c2ccc(Br)cc12 (stereo not given)	35
CN(C)CCOc1ccc(Cn2cc(C3CC(c4ccc(C(F)(F)F)cc4)=NN3C(N)=O)c3cc(Br)ccc32)cc1 (stereo not given)	22.7
NC(=O)N1N=C(c2ccc(C(F)(F)F)cc2)C[C@@H]1c1cn(Cc2ccc(OCCN3CCCCCC3)cc2)c2ccc(Br)cc12	24.2
NC(=O)N1N=C(c2ccc(C(F)(F)F)cc2)CC1c1cn(Cc2ccc(OCCN3CCCCC3)cc2)c2ccccc12 (stereo not given)	8.2
COc1ccc2c(c1)c(C1CC(c3ccc(C(F)(F)F)cc3)=NN1C(N)=O)cn2Cc1ccc(OCCN2CCCCC2)cc1 (stereo not given)	10.4
NC(=O)N1N=C(c2ccc(C(F)(F)F)cc2)CC1c1cn(Cc2ccc(OCCN3CCOCC3)cc2)c2ccc(Br)cc12 (stereo not given)	8.2
COc1cccc(C2=NN(C(N)=O)C(c3cn(Cc4ccc(OCCN5CCCCC5)cc4)c4ccc(Br)cc34)C2)c1 (stereo not given)	19.6
NC(=O)N1N=C(c2ccc(C(F)(F)F)cc2)C[C@H]1c1cn(Cc2ccc(OCCN3CCCCCC3)cc2)c2ccc(Br)cc12	37.4
NC(=O)N1N=C(c2ccc(Cl)cc2)CC1c1cn(Cc2ccc(OCCN3CCCCC3)cc2)c2ccc(Br)cc12 (stereo not given)	29.2
COc1ccc(C2=NN(C(N)=O)C(c3cn(Cc4ccc(OCCN5CCCCC5)cc4)c4ccc(Br)cc34)C2)cc1 (stereo not given)	26.2
NC(=O)N1N=C(c2ccc(C(F)(F)F)cc2)CC1c1cn(Cc2ccc(OCCN3CCCCC3)cc2)c2ccc(Br)cc12 (stereo not given)	19.9
COc1ccccc1C1=NN(C(N)=O)C(c2cn(Cc3ccc(OCCN4CCCCC4)cc3)c3ccc(Br)cc23)C1 (stereo not given)	36.4
COc1ccc2c(c1)c(C1CC(c3ccc(F)cc3)=NN1C(N)=O)cn2Cc1ccc(OCCN2CCCCC2)cc1 (stereo not given)	10.9
